According to the supplement of paper PMC10307832:

Tests used:
Assay in all cases: relative viability (nuclei count vs DMSO), 5 days (fraction); higher = more cells survive
NCI-H647 = tested on: NCI-H647
Procedure, shortened: (§1)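 Five library-drug doses in √10 steps were combined with a fixed anchor-drug dose, or a single drug was given alone, by pin tool to lung cancer cell lines in 1536-well plates the day after seeding. Nuclei were stained and counted after 5 days. Relative viability is the nuclei count in treated wells over that in vehicle wells, taken as the median of duplicate plates.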

NCI-H1792 = tested on: NCI-H1792
Procedure, shortened: as §1

NCI-H1648 = tested on: NCI-H1648
Procedure, shortened: as §1

HCC-15 = tested on: HCC-15
Procedure, shortened: as §1

LCLC-97TM1 = tested on: LCLC-97TM1
Procedure, shortened: as §1

RERF-LC-KJ = tested on: RERF-LC-KJ
Procedure, shortened: as §1

NCI-H650 = tested on: NCI-H650
Procedure, shortened: as §1

EPLC-272H = tested on: EPLC-272H
Procedure, shortened: as §1

NCI-H1395 = tested on: NCI-H1395
Procedure, shortened: as §1

HCC-827 = tested on: HCC-827
Procedure, shortened: as §1

HCC-44 = tested on: HCC-44
Procedure, shortened: as §1

NCI-H596 = tested on: NCI-H596
Procedure, shortened: as §1

NCI-H1993 = tested on: NCI-H1993
Procedure, shortened: as §1

ABC-1 = tested on: ABC-1
Procedure, shortened: as §1

HCC-78 = tested on: HCC-78
Procedure, shortened: as §1

NCI-H522 = tested on: NCI-H522
Procedure, shortened: as §1

NCI-H358 = tested on: NCI-H358
Procedure, shortened: as §1

HCC-366 = tested on: HCC-366
Procedure, shortened: as §1

C=C1C(=O)O[C@@H](CCCCCCCC)[C@@H]1C(=O)O [C-75] + NC(=O)Nc1cc(-c2cccc(F)c2)sc1C(=O)N[C@H]1CCCNC1 [AZD7762] (partner 0.2 µM)
relative viability (NCI-H647; first compound 0.08 µM): 0.412
relative viability (NCI-H647; first compound 0.253 µM): 0.405
relative viability (NCI-H647; first compound 0.8 µM): 0.329
relative viability (NCI-H647; first compound 2.53 µM): 0.444
relative viability (NCI-H647; first compound 8 µM): 0.373
relative viability (NCI-H1792; first compound 0.08 µM): 0.787
relative viability (NCI-H1792; first compound 0.253 µM): 0.623
relative viability (NCI-H1792; first compound 0.8 µM): 0.748
relative viability (NCI-H1792; first compound 2.53 µM): 0.443
relative viability (NCI-H1792; first compound 8 µM): 0.554
relative viability (NCI-H1648; first compound 0.08 µM): 0.75
relative viability (NCI-H1648; first compound 0.253 µM): 1.2
relative viability (NCI-H1648; first compound 0.8 µM): 0.712
relative viability (NCI-H1648; first compound 8 µM): 0.622
relative viability (HCC-15; first compound 0.08 µM): 1.37
relative viability (HCC-15; first compound 0.253 µM): 1.39
relative viability (HCC-15; first compound 0.8 µM): 1.2
relative viability (HCC-15; first compound 2.53 µM): 0.78
relative viability (HCC-15; first compound 8 µM): 1.22
relative viability (LCLC-97TM1; first compound 0.08 µM): 0.248
relative viability (LCLC-97TM1; first compound 0.253 µM): 0.581
relative viability (LCLC-97TM1; first compound 0.8 µM): 0.218
relative viability (LCLC-97TM1; first compound 2.53 µM): 0.254
relative viability (LCLC-97TM1; first compound 8 µM): 0.833
relative viability (RERF-LC-KJ; first compound 0.08 µM): 0.946
relative viability (RERF-LC-KJ; first compound 0.253 µM): 1.16
relative viability (RERF-LC-KJ; first compound 0.8 µM): 0.824
relative viability (RERF-LC-KJ; first compound 2.53 µM): 0.925
relative viability (RERF-LC-KJ; first compound 8 µM): 1.09
relative viability (NCI-H650; first compound 0.08 µM): 0.935
relative viability (NCI-H650; first compound 0.253 µM): 0.796
relative viability (NCI-H650; first compound 0.8 µM): 1.01
relative viability (NCI-H650; first compound 2.53 µM): 0.81
relative viability (NCI-H650; first compound 8 µM): 1.02
relative viability (EPLC-272H; first compound 0.08 µM): 0.23
relative viability (EPLC-272H; first compound 0.253 µM): 0.257
relative viability (EPLC-272H; first compound 0.8 µM): 0.188
relative viability (EPLC-272H; first compound 2.53 µM): 0.196
relative viability (EPLC-272H; first compound 8 µM): 0.266
relative viability (NCI-H1395; first compound 0.08 µM): 0.358
relative viability (NCI-H1395; first compound 0.253 µM): 0.386
relative viability (NCI-H1395; first compound 2.53 µM): 0.4
relative viability (NCI-H1395; first compound 8 µM): 0.413
relative viability (HCC-827; first compound 0.253 µM): 0.245
relative viability (HCC-827; first compound 0.8 µM): 0.201
relative viability (HCC-827; first compound 8 µM): 0.355
relative viability (HCC-44; first compound 0.08 µM): 1.03
relative viability (HCC-44; first compound 0.253 µM): 1.05
relative viability (HCC-44; first compound 0.8 µM): 0.999
relative viability (HCC-44; first compound 2.53 µM): 0.953
relative viability (HCC-44; first compound 8 µM): 1.08
relative viability (NCI-H596; first compound 0.08 µM): 1.23
relative viability (NCI-H596; first compound 0.253 µM): 1.12
relative viability (NCI-H596; first compound 0.8 µM): 0.998
relative viability (NCI-H596; first compound 2.53 µM): 0.975
relative viability (NCI-H596; first compound 8 µM): 0.988
relative viability (NCI-H1993; first compound 0.08 µM): 0.959
relative viability (NCI-H1993; first compound 0.253 µM): 0.998
relative viability (NCI-H1993; first compound 0.8 µM): 0.772
relative viability (NCI-H1993; first compound 2.53 µM): 0.687
relative viability (NCI-H1993; first compound 8 µM): 0.685
relative viability (ABC-1; first compound 0.08 µM): 0.736
relative viability (ABC-1; first compound 0.253 µM): 0.461
relative viability (ABC-1; first compound 0.8 µM): 0.685
relative viability (ABC-1; first compound 2.53 µM): 0.672
relative viability (ABC-1; first compound 8 µM): 0.775
relative viability (HCC-78; first compound 0.08 µM): 0.584
relative viability (HCC-78; first compound 0.253 µM): 0.409
relative viability (HCC-78; first compound 0.8 µM): 0.579
relative viability (HCC-78; first compound 8 µM): 0.72
relative viability (NCI-H522; first compound 0.08 µM): 0.851
relative viability (NCI-H522; first compound 0.253 µM): 0.717
relative viability (NCI-H522; first compound 0.8 µM): 0.846
relative viability (NCI-H522; first compound 2.53 µM): 0.855
relative viability (NCI-H522; first compound 8 µM): 0.727
relative viability (NCI-H358; first compound 0.08 µM): 0.55
relative viability (NCI-H358; first compound 0.253 µM): 0.531
relative viability (NCI-H358; first compound 0.8 µM): 0.454
relative viability (NCI-H358; first compound 2.53 µM): 0.456
relative viability (NCI-H358; first compound 8 µM): 0.477
relative viability (HCC-366; first compound 0.08 µM): 0.271
relative viability (HCC-366; first compound 0.253 µM): 0.306
relative viability (HCC-366; first compound 0.8 µM): 0.227
relative viability (HCC-366; first compound 2.53 µM): 0.152
relative viability (HCC-366; first compound 8 µM): 0.52
